Publication PMC6145916, “Interaction of mitochondrial fission factor with dynamin related protein 1 governs physiological mitochondrial function in vivo” (Scientific Reports, 2018)
Where no end group is shown, it is not given here.

What was measured:
SH-SY5Y cells = experiment: Oxygen consumption rate, SH-SY5Y; type: cell-based, human; details: overnight treatment, XFe24 analyzer
MFF knockout MEFs = experiment: Mitochondrial ROS (MitoSox), MFF knockout MEFs; type: cell-based, mouse; details: 4 µM P259 daily for three days, vs no peptide; 3 independent experiments, three technical replicates; ns p = 0.23
Source text: Data are of 3 independent experiments with the whiskers calculated by the Turkey method. e. […]
production in an Mff -dependent manner. Mitochondrial reactive oxygen species production […]
treatment in each cell line. […]
determined by an unpaired, two -tailed t test). g. […]
control (no peptide treatment). Data are mean ± s.e. from 3 independent experiments.
Mitochondrial reactive oxygen species determination […]
and 1% penicillin-streptomycin solution (Corning, NY, USA). […]
and without phenol red. […] After incubation
HEPES, and without phenol red. […]
epifluorescence microscope with a 10X objective (Keyence). The Cy5 filter (Keyence) was used to autofocus on the mitochondria plane. […]
calculated as the average MitoSox signal per cell. […]

wild-type mice = experiment: ATP content in brain tissue; type: in vivo, mouse; details: 3 mg/Kg/day, subcutaneous osmotic pump, 8 weeks, WT mice; n = 4 mice, 2 replicates
Source text: (§1) (a) Quantification of mitochondrial Drp1 content relative to ALDH2 (a mitochondrial matrix enzyme) in the mitochondrial fraction isolated from total brain lysate of wild-type mice (Western blot shown in Fig. S3B) (n = 4 mice). (b) ATP content in brain tissue of wild-type mice (n = 4 mice, 2 replicates). (c) Representative transmission electron microscopy images of the striatum from wild-type mice. […] The first principal component represents 42% of the variation. (f) Local linear embedding dimensionality reduction and visualization of all behaviors collected weekly from TAT- (black) or P259- (purple) treated WT and TAT- (white) treated R6/2 mice over the course of 8 weeks. […] All behavior and survival tests were conducted by an experienced observer who was blinded to the treatment groups. Data are mean ± s.e.
(§2) Five-week old R6/2 HD mice and their wild-type littermates (a total of 60 mice) were implanted subcutaneously with a 28-d Alzet osmotic pump with either P259-TAT or TAT control peptide (15 mice per group) to be delivered continuously at a rate of 3 mg/Kg/day, as previously described. All mice were implanted twice for a total of an 8-week treatment. 20 of the WT mice were implanted 3 times for a total of a 12-week treatment at 3 mg/Kg/day. […]
(§3) To quantify mitochondrial motility, the images at time 0 and 150 seconds w ere overlaid. […]

striatal neurons = experiment: Transmission electron microscopy of striatum; type: in vivo, mouse; details: 3 mg/Kg/day, 8 weeks, WT mice; 806 (TAT) and 1109 (P259) mitochondria from ten images per condition
Source text: as §1, §2, §3

Which results are given for “YGRKKRRQRRRGSGIIQLPEIVVV-NH2 (C-terminus assumed) [P259]”?
electron flux (electron transport chain flux) (SH-SY5Y cells; 4 µM (Fig. 2f), n = 3, with at least 3 replicates): dose-dependent decline; basal oxygen consumption rate (SH-SY5Y cells; indicated concentrations, 3 independent experiments): dose-dependent decline; effect on mitochondrial ROS levels, Mff knockout MEFs (MFF knockout MEFs): insensitive; decrease in ATP levels in the brain (wild-type mice): 30%; mitochondrial size and shape in striatal neurons (electron microscopy) (striatal neurons): larger and more elongated mitochondria in striatal neurons
